Assays:
HIV p24 = assay: p24 expression from pNL4-3-LucE- molecular clone in 293T cells; format: cell-based, HIV-1; conditions: 293T cell extract; 12 hr post-transfection
Description: FIGS. 3A-D are a set of diagrams and photographs showing drug effects on luciferase expression from an HIV-1 molecular clone. A. Comparison of drug effects on luciferase expression from the pNL4-3-LucE- molecular clone in 293T cells. The molecular clone pNL4-3-LucE- and pCMV-Ren were transfected into 293T cells. Drugs were added where indicated at the following concentrations: P2 (30 μM), CPX (30 μM), DEF (250 μM), or DFOX (15 μM). Dual luciferase assays were conducted at 12 hr post-transfection. Firefly (FF) luciferase expression was normalized to Renilla luciferase (Ren) from pCMV-Ren (mean of 2 experiments in duplicate, ±SD). B. Expression in Jurkat cells was assayed essentially as in panel A. C. Firefly and Renilla luciferase RNA expression was analyzed in 293T cells treated as in panel A by RPA using 32P-[UTP] labeled antisense RNA probes corresponding to the C-termini of the FF and Ren luciferase mRNAs. D. Comparison of drug effects on p24 expression from the pNL4-3-LucE- molecular clone in 293T cells. Drugs were added where indicated to the same concentrations as in A. p24 levels were determined in cell extract at 12 hr post-transfection.
p24 core antigen in the supernatant was quantified by ELISA (Retrotek HIV-1 p24™; ZeptoMetrix Corp.; Buffalo, N.Y.). HIV-1 RNA copy number in the supernatant was determined with a PCR-based and FDA-approved assay (Amplicor HIV-1 Monitor™; Roche Diagnostics Corp.; Indianapolis, Ind.). IFN-γ and IL-10 in the supernatant were determined by cytometric bead array (Human Th1/Th2 Cytokine Kit II™; BD Biosciences Pharmingen, San Jose, Calif.).

H9-HIV cells = assay: TUNEL DNA fragmentation in H9-HIV cells; format: cell-based; conditions: 24 hr; between 10 and 20 μM CPX, leveled off at 40 μM
Description: (§1) The potential across the mitochondrial membrane of live cells was determined flow-cytometrically with the lipophilic cationic fluorochrome JC-1 (5,5′,6,6′-tetrachloro-1,1′,3,3′-tetraethylbenzimidazolcarbocyanine iodide) immediately after sample harvest (BD™ Mitoscreen Kit, BD Biosciences; San Diego, Calif.). DNA fragmentation was quantified flow-cytometrically, using a TUNEL (terminal deoxynucleotide transferase dUTP nick end-labeling) assay (APO-BRDU™; Phoenix Flow Systems; San Diego, Calif.) and a dual-color assay for annexin V binding and 7-AAD exclusion (Annexin V-PE 7-AAD Apoptosis Detection Kit I™; BD Biosciences Pharmingen, San Jose, Calif.). The apoptotic volume decrease of cells was assessed by the reduction of their diameter (VI-CELL™; Beckman Coulter; Fullerton, Calif.).
The relationship between iron chelation and apoptosis was assessed using the TUNEL assay to measure DNA fragmentation. DEF induces this late apoptotic event in HIV-expressing ACH-2 cells. Similarly, CPX triggered DNA fragmentation in H9-HIV cells in a dose-dependent manner with a steep, almost 10-fold increase in TUNEL-positive cells between 10 and 20 μM CPX that leveled off at 40 μM (FIG. 11C). […]

HIV-infected PBMCs = assay: TUNEL apoptosis in HIV-1 exposed PBMC cultures; format: cell-based, human; conditions: CPX 30 μM
Description: Uninfected PBMCs were co-incubated with infected PBMC stock in 24-well microplates at 2 ml/well Medium B, at a 10:1 ratio of uninfected-to-infected cells, and a total cell number of 1×10^6. Cultures were maintained and assayed for 6 consecutive days. CPX or Agent P2 was added at the time of inoculation or 12 hr later. Leaving the cell layer undisturbed, half the medium in each well was replenished every day, with concurrent adjustment of compound concentration. On each day during the 6-day experiments, a set of wells was harvested: the cells were processed for determination of viability and apoptosis, and the cell-free supernatants were stored at −80° C. for p24 and viral RNA measurements. […]
as §1, with “The apoptotic volume decrease of cells was assessed by the reduction of their diameter (VI-CELL™; Beckman Coulter; Fullerton, Calif.).” left out

HIV-1 = assay: Small trial of virological response to DEF in HIV-infected volunteers; format: in vivo, human

SMILES	inhibition of HIV p24 expression from the molecular clone (HIV p24)	increase in TUNEL-positive cells (H9-HIV cells)	apoptotic (TUNEL-positive) cells (HIV-infected PBMCs; 144 hr after inoculation)	increase in proportion of TUNEL-positive PBMCs (HIV-infected PBMCs; HIV-infected cultures)	virological response after drug withdrawal (HIV-1)
Cc1cc(C2CCCCC2)n(O)c(=O)c1 [CPX, 6-cyclohexyl-1-hydroxy-4-methylpyridin-2[1H]-one]	~60%	~10 fold	71.8% (±8.8%)	~10 fold	–
Cc1c(O)c(=O)ccn1C [DEF, 3-hydroxy-1,2-dimethylpyridin-4(1H)-one]	~60%	–	–	–	persistent off-medicine antiretroviral activity even eight weeks after drug withdrawal

— patent publication US20120225093A1, “Abrogating HIV-1 Infection via Drug-Induced Reactivation of Apoptosis” (UNIVERSITY OF MEDICINE AND DENTISTRY OF NEW JERSEY, priority 2010, published 2012)
